Experimental findings from BindingDB's records for patent US20260049071 (Beyang Therapeutics Co., 2026) are described below.

Each structure is given as a SMILES string.

Test in all cases: Testing of the Ability of Compounds to Inhibit VEGFR and EGFR Kinase
The target in assay [1] is Vascular endothelial growth factor receptor 1 (Homo sapiens, UniProt P17948). As for the experimental part: (§1) This assay directly monitored the ability of compounds to inhibit kinase phosphorylation by measuring non-phosphorylated and phosphorylated substrates in kinase reactions by using Mobility Shift Assays/IMAP™ analysis. Test Protocol and Procedures: Add the kinase and DTT to 1× kinase buffer to form a 2.5× kinase solution; transfer 10 μL of 2.5× kinase solution to a 384-well reaction plate and add 1× kinase buffer to negative control wells. Incubate the plate for 10 min at room temperature; add FAM-labeled peptides, MgCl2, ATP and other reagents to 1× kinase buffer to form a 2.5× substrate solution; transfer 10 μL of the above 2.5× substrate solution to the 384-well reaction plate; incubate the plate at 28° C. for different times,and add 25 μL of stop solution to the 384-well reaction plate to stop the reaction. Read the conversion ratio data on CaliperEZ Reader II.

In assay [2] the target is Vascular endothelial growth factor receptor 3 (Homo sapiens, UniProt P35916). As for the experimental part: as §1
The target in assay [3] is Epidermal growth factor receptor (Homo sapiens, UniProt P00533). On the procedure:
as §1

Chain of Epidermal growth factor receptor (P00533 whole entry): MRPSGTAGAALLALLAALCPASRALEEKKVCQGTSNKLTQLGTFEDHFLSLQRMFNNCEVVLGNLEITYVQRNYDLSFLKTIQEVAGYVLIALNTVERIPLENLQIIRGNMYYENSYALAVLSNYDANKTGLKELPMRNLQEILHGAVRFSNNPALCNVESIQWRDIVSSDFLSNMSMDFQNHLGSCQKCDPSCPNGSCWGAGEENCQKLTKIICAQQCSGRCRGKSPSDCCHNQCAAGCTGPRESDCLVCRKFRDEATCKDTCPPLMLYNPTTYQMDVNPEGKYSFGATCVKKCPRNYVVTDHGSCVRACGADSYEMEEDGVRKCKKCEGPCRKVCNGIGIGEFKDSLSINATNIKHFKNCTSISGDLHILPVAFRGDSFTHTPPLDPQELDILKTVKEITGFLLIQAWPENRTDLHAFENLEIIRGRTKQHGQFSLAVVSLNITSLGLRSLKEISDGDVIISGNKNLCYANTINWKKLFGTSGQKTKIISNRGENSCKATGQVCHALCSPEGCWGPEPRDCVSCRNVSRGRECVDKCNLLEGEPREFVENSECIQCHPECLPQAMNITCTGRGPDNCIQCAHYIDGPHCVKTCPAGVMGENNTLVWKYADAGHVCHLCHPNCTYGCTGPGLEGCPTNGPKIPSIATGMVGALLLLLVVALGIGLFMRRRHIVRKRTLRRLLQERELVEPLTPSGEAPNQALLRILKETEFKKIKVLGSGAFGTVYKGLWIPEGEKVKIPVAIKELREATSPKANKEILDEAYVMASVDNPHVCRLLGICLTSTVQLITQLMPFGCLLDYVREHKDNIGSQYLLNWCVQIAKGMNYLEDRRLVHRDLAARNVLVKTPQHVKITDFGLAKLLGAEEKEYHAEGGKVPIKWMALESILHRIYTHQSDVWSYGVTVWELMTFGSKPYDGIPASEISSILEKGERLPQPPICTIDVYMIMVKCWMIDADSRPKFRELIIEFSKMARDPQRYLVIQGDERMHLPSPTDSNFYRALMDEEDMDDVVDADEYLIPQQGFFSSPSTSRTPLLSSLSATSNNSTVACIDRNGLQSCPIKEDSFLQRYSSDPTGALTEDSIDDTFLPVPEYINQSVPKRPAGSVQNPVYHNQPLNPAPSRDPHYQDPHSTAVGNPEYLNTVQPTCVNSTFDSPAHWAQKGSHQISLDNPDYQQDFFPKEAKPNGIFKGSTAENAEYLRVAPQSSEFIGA
Chain of Vascular endothelial growth factor receptor 3 (P35916 whole entry): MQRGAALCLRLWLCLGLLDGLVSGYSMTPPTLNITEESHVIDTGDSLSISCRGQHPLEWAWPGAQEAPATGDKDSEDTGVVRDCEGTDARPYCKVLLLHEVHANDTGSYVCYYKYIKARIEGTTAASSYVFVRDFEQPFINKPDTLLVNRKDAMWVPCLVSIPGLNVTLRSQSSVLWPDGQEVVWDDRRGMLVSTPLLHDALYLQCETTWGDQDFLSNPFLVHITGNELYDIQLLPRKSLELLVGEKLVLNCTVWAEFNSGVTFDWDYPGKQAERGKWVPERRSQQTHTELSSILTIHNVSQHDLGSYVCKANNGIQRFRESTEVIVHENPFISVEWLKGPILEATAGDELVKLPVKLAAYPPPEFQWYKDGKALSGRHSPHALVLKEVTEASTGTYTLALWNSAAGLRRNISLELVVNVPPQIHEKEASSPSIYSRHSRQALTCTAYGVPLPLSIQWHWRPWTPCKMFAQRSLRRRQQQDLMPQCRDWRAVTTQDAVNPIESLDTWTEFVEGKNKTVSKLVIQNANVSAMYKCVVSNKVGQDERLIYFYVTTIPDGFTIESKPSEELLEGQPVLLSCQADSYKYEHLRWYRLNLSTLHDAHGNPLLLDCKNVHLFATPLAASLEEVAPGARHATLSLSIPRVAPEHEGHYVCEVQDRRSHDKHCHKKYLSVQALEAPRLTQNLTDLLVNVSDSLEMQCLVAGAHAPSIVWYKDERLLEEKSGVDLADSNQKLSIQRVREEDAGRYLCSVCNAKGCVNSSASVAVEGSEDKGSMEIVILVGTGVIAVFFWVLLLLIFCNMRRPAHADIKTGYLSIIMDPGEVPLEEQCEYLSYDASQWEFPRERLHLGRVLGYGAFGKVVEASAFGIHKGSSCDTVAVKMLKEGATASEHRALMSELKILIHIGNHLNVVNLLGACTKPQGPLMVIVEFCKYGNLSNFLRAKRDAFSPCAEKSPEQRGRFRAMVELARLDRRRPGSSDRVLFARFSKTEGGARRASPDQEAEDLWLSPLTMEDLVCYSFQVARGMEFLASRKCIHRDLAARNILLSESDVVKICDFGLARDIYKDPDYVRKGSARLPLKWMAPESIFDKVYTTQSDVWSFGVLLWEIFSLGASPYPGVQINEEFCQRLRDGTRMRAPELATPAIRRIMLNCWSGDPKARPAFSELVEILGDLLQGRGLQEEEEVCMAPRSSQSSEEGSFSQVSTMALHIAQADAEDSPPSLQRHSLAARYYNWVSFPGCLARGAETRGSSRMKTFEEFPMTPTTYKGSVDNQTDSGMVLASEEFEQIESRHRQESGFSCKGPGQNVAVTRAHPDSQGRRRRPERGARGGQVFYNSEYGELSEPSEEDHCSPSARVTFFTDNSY
Chain of Vascular endothelial growth factor receptor 1 (P17948 whole entry): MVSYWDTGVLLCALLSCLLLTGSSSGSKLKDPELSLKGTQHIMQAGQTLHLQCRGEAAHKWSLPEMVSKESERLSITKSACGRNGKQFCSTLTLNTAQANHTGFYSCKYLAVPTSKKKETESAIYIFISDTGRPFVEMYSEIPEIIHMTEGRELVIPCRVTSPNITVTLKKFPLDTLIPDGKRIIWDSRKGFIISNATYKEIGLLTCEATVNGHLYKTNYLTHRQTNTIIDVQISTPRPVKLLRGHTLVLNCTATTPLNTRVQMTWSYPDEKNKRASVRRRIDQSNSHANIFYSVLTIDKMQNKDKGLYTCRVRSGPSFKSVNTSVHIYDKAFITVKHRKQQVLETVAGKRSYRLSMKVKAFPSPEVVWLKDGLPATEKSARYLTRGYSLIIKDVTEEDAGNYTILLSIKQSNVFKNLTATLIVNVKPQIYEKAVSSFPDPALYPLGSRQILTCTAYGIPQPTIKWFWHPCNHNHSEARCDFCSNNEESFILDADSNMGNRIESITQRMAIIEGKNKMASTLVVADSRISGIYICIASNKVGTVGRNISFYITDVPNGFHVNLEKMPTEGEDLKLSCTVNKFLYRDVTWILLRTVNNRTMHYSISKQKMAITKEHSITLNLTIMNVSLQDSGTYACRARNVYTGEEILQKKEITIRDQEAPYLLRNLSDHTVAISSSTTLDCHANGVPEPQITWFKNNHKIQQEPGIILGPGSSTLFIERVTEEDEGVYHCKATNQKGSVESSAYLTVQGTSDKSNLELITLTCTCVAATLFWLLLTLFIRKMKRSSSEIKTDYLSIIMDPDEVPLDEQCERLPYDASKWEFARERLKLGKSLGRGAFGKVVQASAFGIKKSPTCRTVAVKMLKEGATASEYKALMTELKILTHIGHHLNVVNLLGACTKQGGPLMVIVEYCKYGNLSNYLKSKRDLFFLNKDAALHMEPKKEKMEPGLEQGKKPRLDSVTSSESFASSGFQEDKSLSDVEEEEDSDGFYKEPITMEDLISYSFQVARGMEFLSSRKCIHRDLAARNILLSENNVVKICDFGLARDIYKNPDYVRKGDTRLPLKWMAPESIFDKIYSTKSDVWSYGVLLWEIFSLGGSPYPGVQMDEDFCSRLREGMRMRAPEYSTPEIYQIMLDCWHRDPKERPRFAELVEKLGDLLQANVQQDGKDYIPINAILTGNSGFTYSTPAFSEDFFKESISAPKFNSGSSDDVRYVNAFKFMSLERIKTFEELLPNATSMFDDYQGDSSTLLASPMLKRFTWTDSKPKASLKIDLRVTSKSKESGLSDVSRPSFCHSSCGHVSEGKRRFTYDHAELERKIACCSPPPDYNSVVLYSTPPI

Consider `NC(=O)c1ccccc1Sc1ccc2c(/C=C/c3cnn(CCCN4CCCC4)c3)n[nH]c2c1` [US20260049071, No. I-44], for which the IC50 in assay [1] was 1 to 10 nM; in assay [2], 10 to 100 nM; in assay [3], “in the range around 33000 nM”.

By IC50 is commonly meant the midpoint of a concentration-inhibition curve. Low readings indicate greater potency, high ones weaker potency.
